The results in this text go back to ChEMBL document CHEMBL1129029, “Understanding the binding of 5-substituted 2'-deoxyuridine substrates to thymidine kinase of herpes simplex virus type-1” (J Med Chem, 1996).

This assay addresses T1, Thymidine kinase (Human herpesvirus 1 (strain SC16) (HHV-1) (Human herpes simplex virus1), UniProt P06479).
T1 sequence (P06479 whole entry): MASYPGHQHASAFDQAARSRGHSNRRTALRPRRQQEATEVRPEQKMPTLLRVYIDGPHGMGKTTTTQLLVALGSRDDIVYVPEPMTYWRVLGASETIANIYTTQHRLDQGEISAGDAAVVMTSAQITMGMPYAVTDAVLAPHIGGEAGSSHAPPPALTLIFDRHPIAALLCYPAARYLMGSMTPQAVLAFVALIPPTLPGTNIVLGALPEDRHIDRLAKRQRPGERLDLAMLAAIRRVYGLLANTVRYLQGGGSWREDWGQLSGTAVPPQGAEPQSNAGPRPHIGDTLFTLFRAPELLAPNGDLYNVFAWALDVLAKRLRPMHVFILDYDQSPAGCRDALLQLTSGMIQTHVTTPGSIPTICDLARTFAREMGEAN
Put plainly: Binding affinity towards HSV-1 thymidine kinase.

The term IC50 denotes the concentration that inhibits the measured activity by half. The compound `O=c1[nH]c(=O)n([C@H]2C[C@H](O)[C@@H](CO)O2)cc1-c1ccns1` returned an IC50 of 3.1 µM.
For the compound `O=c1[nH]c(=O)n([C@H]2C[C@H](O)[C@@H](CO)O2)cc1-c1cccs1`, the IC50 was 2.4 µM.
In the case of `O=c1[nH]c(=O)n([C@H]2C[C@H](O)[C@@H](CO)O2)cc1-c1cscc1Br`, the IC50 was found to be 143 µM.
The compound `O=c1[nH]c(=O)n([C@H]2C[C@H](O)[C@@H](CO)O2)cc1-c1sccc1Br` came in with an IC50 of 61 µM.
`O=c1[nH]c(=O)n([C@H]2C[C@H](O)[C@@H](CO)O2)cc1-c1ccsc1` displayed an IC50 of 4 µM.
The same measure for `O=c1[nH]c(=O)n([C@H]2C[C@H](O)[C@@H](CO)O2)cc1-c1ccccc1`: 102 µM.
In turn, `O=c1[nH]c(=O)n([C@H]2C[C@H](O)[C@@H](CO)O2)cc1-c1sc(Br)cc1Br` displayed a 50% inhibitory concentration (IC50) of 62 µM.
The compound `O=c1[nH]c(=O)n([C@H]2C[C@H](O)[C@@H](CO)O2)cc1-c1cc(Br)no1` returned an IC50 of 34 µM.
Compound `O=c1[nH]c(=O)n([C@H]2C[C@H](O)[C@@H](CO)O2)cc1-c1ccc(Br)s1` had an IC50 of 3.5 µM.
With `Cc1ccc(-c2cn([C@H]3C[C@H](O)[C@@H](CO)O3)c(=O)[nH]c2=O)s1`, the IC50 is 2.3 µM.
Consider `O=c1[nH]c(=O)n([C@H]2C[C@H](O)[C@@H](CO)O2)cc1-c1ccno1`, for which the IC50 came out at 36 µM.
On to `O=c1[nH]c(=O)n([C@H]2C[C@H](O)[C@@H](CO)O2)cc1-c1ccoc1`, for which the IC50 is 1.5 µM.
`O=c1[nH]c(=O)n([C@H]2C[C@H](O)[C@@H](CO)O2)cc1-c1ccco1` had an IC50 of 2.9 µM.
Compound `O=c1[nH]c(=O)n([C@H]2C[C@H](O)[C@@H](CO)O2)cc1-c1ccc(Cl)o1` came in with an IC50 of 28 µM.
For the compound `O=c1[nH]c(=O)n([C@H]2C[C@H](O)[C@@H](CO)O2)cc1-c1ccc(Br)o1`, the IC50 was 51 µM.
In the case of `O=c1[nH]c(=O)n([C@H]2C[C@H](O)[C@@H](CO)O2)cc1-c1ccc(Cl)s1`, the IC50 turned out to be 2.3 µM.
